Read-outs that look alike come from different tables or passages of the source.
Experiments:
Assay type in all cases: in vivo
[1] = tested on: chickweed (Stellaria media); assay: Test C postemergence; conditions: Stellaria media, post-emergence
Method in brief: (§1)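 Applications: preemergence onto seeded soil and postemergence onto 1- to 4-leaf seedlings, compound carried in non-phytotoxic solvent plus surfactant. Kept in greenhouse 12 to 14 days. Scored visually relative to untreated controls, 0 (no effect) to 100 (complete control).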

[2] = tested on: goosegrass (Eleusine indica); assay: Test C pre/postemergence; conditions: Eleusine indica; for pest or weed control at 31 g/ha: 31 g ai/ha; for pest or weed control at 62 g/ha: 62 g ai/ha; for pest or weed control at 125 g/ha: 125 g ai/ha; for pest or weed control at 250 g/ha: 250 g ai/ha
Method in brief: as §1

[3] = tested on: velvetleaf (Abutilon theophrasti); assay: Test C pre/postemergence; conditions: Abutilon theophrasti; for pest or weed control at 31 g/ha: 31 g ai/ha; for pest or weed control at 62 g/ha: 62 g ai/ha; for pest or weed control at 125 g/ha: 125 g ai/ha; for pest or weed control at 250 g/ha: 250 g ai/ha
Method in brief: as §1

[4] = tested on: yellow nutsedge (Cyperus esculentus); assay: Test C pre/postemergence; conditions: Cyperus; for pest or weed control at 31 g/ha: 31 g ai/ha; for pest or weed control at 62 g/ha: 62 g ai/ha; for pest or weed control at 125 g/ha: 125 g ai/ha; for pest or weed control at 250 g/ha: 250 g ai/ha
Method in brief: as §1

[5] = tested on: bermudagrass (Cynodon dactylon); assay: Test C pre/postemergence; conditions: Cynodon dactylon; for pest or weed control at 31 g/ha: 31 g ai/ha; for pest or weed control at 62 g/ha: 62 g ai/ha; for pest or weed control at 125 g/ha: 125 g ai/ha; for pest or weed control at 125 g/ha / pest or weed control at 250 g/ha: scale 0 to 100; for pest or weed control at 250 g/ha: 250 g ai/ha
Method in brief: as §1

[6] = tested on: common ragweed (Ambrosia elatior); assay: Test C pre/postemergence; conditions: Ambrosia artemisiifolia; for pest or weed control at 31 g/ha: 31 g ai/ha; for pest or weed control at 62 g/ha: 62 g ai/ha; for pest or weed control at 125 g/ha: 125 g ai/ha; for pest or weed control at 250 g/ha: 250 g ai/ha
Method in brief: as §1

[7] = tested on: woolly cupgrass (Eriochloa villosa); assay: Test C pre/postemergence; conditions: Eriochloa villosa; for pest or weed control at 31 g/ha: 31 g ai/ha; for pest or weed control at 62 g/ha: 62 g ai/ha; for pest or weed control at 125 g/ha: 125 g ai/ha; for pest or weed control at 250 g/ha: 250 g ai/ha
Method in brief: as §1

[8] = tested on: pigweed (Amaranthus retroflexus); assay: Test C pre/postemergence; conditions: Amaranthus retroflexus; for pest or weed control at 31 g/ha: 31 g ai/ha; for pest or weed control at 62 g/ha: 62 g ai/ha; for pest or weed control at 125 g/ha: 125 g ai/ha; for pest or weed control at 250 g/ha: 250 g ai/ha
Method in brief: as §1

[9] = post-emergence, Postemergence, scale 0 to 100 (0 no effect, 100 complete control), read-out: Goosegrass plant response rating
[10] = pre-emergence, Preemergence, scale 0 to 100, 0 no effect, 100 complete control, read-out: Plant response rating, Goosegrass
[11] = pre-emergence, Preemergence, scale 0 to 100, read-out: Plant response rating, Goosegrass
[12] = post-emergence, Postemergence, scale 0 to 100 (0 no effect, 100 complete control), read-out: Velvetleaf plant response rating
[13] = pre-emergence, Preemergence, scale 0 to 100, 0 no effect, 100 complete control, read-out: Plant response rating, Velvetleaf
[14] = pre-emergence, Preemergence, scale 0 to 100, read-out: Plant response rating, Velvetleaf
[15] = post-emergence, Postemergence, scale 0 to 100 (0 no effect, 100 complete control), read-out: Nutsedge, Yellow plant response rating
[16] = pre-emergence, Preemergence, scale 0 to 100, 0 no effect, 100 complete control, read-out: Plant response rating, Nutsedge, Yellow
[17] = pre-emergence, Preemergence, scale 0 to 100, read-out: Plant response rating, Nutsedge, Yellow
[18] = post-emergence, Postemergence, read-out: Plant response rating, Bermudagrass
[19] = pre-emergence, Preemergence, scale 0 to 100, 0 no effect, 100 complete control, read-out: Plant response rating, Bermudagrass
[20] = pre-emergence, Preemergence, read-out: Plant response rating, Bermudagrass
[21] = post-emergence, Postemergence, scale 0 to 100 (0 no effect, 100 complete control), read-out: Ragweed plant response rating
[22] = pre-emergence, Preemergence, scale 0 to 100, 0 no effect, 100 complete control, read-out: Plant response rating, Ragweed
[23] = pre-emergence, Preemergence, scale 0 to 100, read-out: Plant response rating, Ragweed
[24] = post-emergence, Postemergence, scale 0 to 100 (0 no effect, 100 complete control), read-out: Cupgrass, Woolly plant response rating
[25] = pre-emergence, Preemergence, scale 0 to 100, 0 no effect, 100 complete control, read-out: Plant response rating, Cupgrass, Woolly
[26] = pre-emergence, Preemergence, scale 0 to 100, read-out: Plant response rating, Cupgrass, Woolly
[27] = post-emergence, Postemergence, scale 0 to 100 (0 no effect, 100 complete control), read-out: Pigweed plant response rating
[28] = pre-emergence, Preemergence, scale 0 to 100, 0 no effect, 100 complete control, read-out: Plant response rating, Pigweed
[29] = pre-emergence, Preemergence, scale 0 to 100, read-out: Plant response rating, Pigweed

COC(=O)c1nc(C2CC2)nc(N)c1Br [Compound 2, methyl 6-amino-5-bromo-2-cyclopropyl-4-pyrimidinecarboxylate]
pest or weed control at 31 g/ha ([1]; 31 g ai/ha, read-out: Plant response rating (scale of 0 to 100), Chickweed): 60%
pest or weed control at 62 g/ha ([1]; 62 g ai/ha, scale 0 to 100 (0 no effect, 100 complete control), read-out: Chickweed plant response rating): 65%
pest or weed control at 125 g/ha ([1]; 125 g ai/ha, scale 0 to 100, read-out: Plant response rating, Chickweed): 75%
pest or weed control at 250 g/ha ([1]; 250 g ai/ha, scale 0 to 100, read-out: Plant response rating, Chickweed): 95%
pest or weed control at 31 g/ha ([2]; post-emergence, Postemergence, read-out: Plant response rating (scale of 0 to 100), Goosegrass): 0%
pest or weed control at 62 g/ha [2, 9]: 0%
pest or weed control at 125 g/ha [2, 9]: 0%
pest or weed control at 250 g/ha ([2]; post-emergence, Postemergence, scale 0 to 100, read-out: Plant response rating, Goosegrass): 45%
pest or weed control at 31 g/ha [2, 10]: 0%
pest or weed control at 62 g/ha [2, 10]: 0%
pest or weed control at 125 g/ha [2, 11]: 0%
pest or weed control at 250 g/ha [2, 11]: 60%
pest or weed control at 31 g/ha ([3]; post-emergence, Postemergence, read-out: Plant response rating (scale of 0 to 100), Velvetleaf): 65%
pest or weed control at 62 g/ha [3, 12]: 70%
pest or weed control at 125 g/ha [3, 12]: 80%
pest or weed control at 250 g/ha ([3]; post-emergence, Postemergence, scale 0 to 100, read-out: Plant response rating, Velvetleaf): 100%
pest or weed control at 31 g/ha [3, 13]: 20%
pest or weed control at 62 g/ha [3, 13]: 50%
pest or weed control at 125 g/ha [3, 14]: 75%
pest or weed control at 250 g/ha [3, 14]: 90%
pest or weed control at 31 g/ha ([4]; post-emergence, Postemergence, read-out: Plant response rating (scale of 0 to 100), Nutsedge, Yellow): 0%
pest or weed control at 62 g/ha [4, 15]: 0%
pest or weed control at 125 g/ha [4, 15]: 0%
pest or weed control at 250 g/ha ([4]; post-emergence, Postemergence, scale 0 to 100, read-out: Plant response rating, Nutsedge, Yellow): 20%
pest or weed control at 31 g/ha [4, 16]: 0%
pest or weed control at 62 g/ha [4, 16]: 0%
pest or weed control at 125 g/ha [4, 17]: 0%
pest or weed control at 250 g/ha [4, 17]: 0%
pest or weed control at 31 g/ha ([5]; post-emergence, Postemergence, read-out: Plant response rating (scale of 0 to 100), Bermudagrass): 15%
pest or weed control at 62 g/ha ([5]; post-emergence, Postemergence, scale 0 to 100 (0 no effect, 100 complete control), read-out: Bermudagrass plant response rating): 60%
pest or weed control at 125 g/ha [5, 18]: 70%
pest or weed control at 250 g/ha [5, 18]: 80%
pest or weed control at 31 g/ha [5, 19]: 0%
pest or weed control at 62 g/ha [5, 19]: 0%
pest or weed control at 125 g/ha [5, 20]: 0%
pest or weed control at 250 g/ha [5, 20]: 0%
pest or weed control at 31 g/ha ([6]; post-emergence, Postemergence, read-out: Plant response rating (scale of 0 to 100), Ragweed): 65%
pest or weed control at 62 g/ha [6, 21]: 85%
pest or weed control at 125 g/ha [6, 21]: 90%
pest or weed control at 250 g/ha ([6]; post-emergence, Postemergence, scale 0 to 100, read-out: Plant response rating, Ragweed): 95%
pest or weed control at 31 g/ha [6, 22]: 0%
pest or weed control at 62 g/ha [6, 22]: 0%
pest or weed control at 125 g/ha [6, 23]: 0%
pest or weed control at 250 g/ha [6, 23]: 0%
pest or weed control at 31 g/ha ([7]; post-emergence, Postemergence, read-out: Plant response rating (scale of 0 to 100), Cupgrass, Woolly): 40%
pest or weed control at 62 g/ha [7, 24]: 60%
pest or weed control at 125 g/ha [7, 24]: 70%
pest or weed control at 250 g/ha ([7]; post-emergence, Postemergence, scale 0 to 100, read-out: Plant response rating, Cupgrass, Woolly): 75%
pest or weed control at 31 g/ha [7, 25]: 0%
pest or weed control at 62 g/ha [7, 25]: 0%
pest or weed control at 125 g/ha [7, 26]: 0%
pest or weed control at 250 g/ha [7, 26]: 45%
pest or weed control at 31 g/ha ([8]; post-emergence, Postemergence, read-out: Plant response rating (scale of 0 to 100), Pigweed): 65%
pest or weed control at 62 g/ha [8, 27]: 80%
pest or weed control at 125 g/ha [8, 27]: 95%
pest or weed control at 250 g/ha ([8]; post-emergence, Postemergence, scale 0 to 100, read-out: Plant response rating, Pigweed): 100%
pest or weed control at 31 g/ha [8, 28]: 90%
pest or weed control at 62 g/ha [8, 28]: 95%
pest or weed control at 125 g/ha [8, 29]: 95%
pest or weed control at 250 g/ha [8, 29]: 100%

Source: US8802597B2, “Herbicidal pyrimidines” (E I du Pont de Nemours and Company, priority 2003, dated 2014)
